In ChEMBL document CHEMBL5390207, “Cyclotheonellazoles D-I, Potent Elastase Inhibitory Thiazole-Containing Cyclic Peptides from Theonella sp. (2131)” (J Nat Prod, 2023):
Active and inactive are the calls of the source. The calls are words filed in the database; no cut-off is given here. Starred links: 1 amine or outer side, 2 acyl side, 3 side chain; linkers in the order of their positions; H or OH if unused. Positions of bridges follow the written chain, without caps; N, C: chain ends. Non-standard residues stand in square brackets, D forms with d. Residues, ends and D or L forms follow the SMILES beside them. X2 = O=C(/C=C/c1csc([C@H](Cc2ccc(O)cc2)N[*:1])n1)[*:2]; X1 = CC[C@H](C)[C@H](N[*:1])C(=O)C(=O)[*:2]; Cya = N[C@@H](CS(=O)(=O)O)C(=O)O; Nva = CCC[C@H](N)C(=O)O; Abu = CC[C@H](N)C(=O)O; Dap = NC[C@H](N)C(=O)O

Assays:
[1] = Inhibition of porcine pancreatic elastase using N-succinyl-Ala-Ala-Ala-p-nitroanilide as substrate preincubated with enzyme for 15 mins followed by substrate addition and measured for 30 mins; parameters: species or system Sus scrofa
Chymotrypsinogen A = Chymotrypsinogen A (Bos taurus, UniProt P00766); assay: Inhibition of bovine pancreatic alpha chymotrypsin using N-succinyl-Gly-Gly-Phe-p-nitroanilide as substrate preincubated with enzyme for 10 mins followed by substrate addition and measured for 30 mins
[2] = target: Replicase polyprotein 1ab (Severe acute respiratory syndrome coronavirus 2, UniProt P0DTD1); assay: Inhibition of SARS-CoV-2 3CLpro incubated for 4 hrs
HCT-116 [3] = assay: Cytotoxicity against human HCT-116 cells assessed as cell viability at >20 uM incubated for 72 hrs by resazurin dye based fluorescence assay; type: functional
L1210 = assay: Cytotoxicity against mouse L1210 cells assessed as reduction in cell viability; type: functional, cell-based
MDA-MB-231 [4] = assay: Cytotoxicity against human MDA-MB-231 cells assessed as cell viability at >20 uM incubated for 72 hrs by resazurin dye based fluorescence assay; type: functional
OVCAR [5] = assay: Cytotoxicity against human OVCAR cells assessed as cell viability at > 20 uM incubated for 72 hrs by resazurin dye based fluorescence assay; type: functional
KB = assay: Cytotoxicity against human KB cells assessed as reduction in cell viability; type: functional, cell-based
HCT-116 [6] = assay: Cytotoxicity against human HCT-116 cells assessed as cell viability upto 100 uM incubated for 72 hrs by resazurin dye based fluorescence assay; type: functional
OVCAR [7] = assay: Cytotoxicity against human OVCAR cells assessed as cell viability upto 100 uM incubated for 72 hrs by resazurin dye based fluorescence assay; type: functional
MDA-MB-231 [8] = assay: Cytotoxicity against human MDA-MB-231 cells assessed as cell viability upto 100 uM incubated for 72 hrs by resazurin dye based fluorescence assay; type: functional

## CC[C@H](C)[C@@H]1NC(=O)[C@H](CC(C)C)NC(=O)[C@@H](NC(=O)[C@H](C)N)CNC(=O)[C@H](CS(=O)(=O)O)NC(=O)/C=C/c2csc(n2)[C@H](Cc2ccc(O)cc2)NC(=O)C1=O (H-A[Dap]L[X1][X2][Cya]; lactam 2-C)
[1]
  IC50: 28 nM
Chymotrypsinogen A
  IC50: 2000 nM
[2]
  IC50: 6100 nM

## CC(C)C[C@@H]1NC(=O)[C@H](NC(=O)N[C@@H](Cc2ccccc2)C(=O)O)CCCCNC(=O)[C@H](Cc2ccccc2)NC(=O)[C@H](Cc2c[nH]c3cc(Cl)ccc23)N(C)C(=O)[C@H](CC(C)C)NC1=O
HCT-116 [3]
  Activity: Active
L1210
  IC50: 500 nM
MDA-MB-231 [4]
  Activity: Active
[2]
  IC50: 4600 nM
OVCAR [5]
  Activity: Active
KB
  IC50: 970 nM

## CC[C@@H]1NC(=O)[C@@H](NC(=O)[C@H](C)N)CNC(=O)[C@H](CS(=O)(=O)O)NC(=O)/C=C/c2csc(n2)[C@H](Cc2ccc(O)cc2)NC(=O)C(=O)[C@H]([C@@H](C)CC)NC1=O (H-A[Dap][Abu][X1][X2][Cya]; lactam 2-C)
[1]
  IC50: 16 nM
Chymotrypsinogen A
  IC50: 1600 nM

## CCC[C@@H]1NC(=O)[C@@H](NC(=O)[C@H](C)N)CNC(=O)[C@H](CS(=O)(=O)O)NC(=O)/C=C/c2csc(n2)[C@H](Cc2ccc(O)cc2)NC(=O)C(=O)[C@H]([C@@H](C)CC)NC1=O (H-A[Dap][Nva][X1][X2][Cya]; lactam 2-C)
[1]
  IC50: 20.1 nM
Chymotrypsinogen A
  IC50: 2400 nM
[2]
  IC50: 16100 nM

## CC[C@H](C)[C@@H]1NC(=O)[C@H](CC(C)C)NC(=O)[C@@H](N2C(=O)N[C@@H](C)C2=O)CNC(=O)[C@H](CS(=O)(=O)O)NC(=O)/C=C/c2csc(n2)[C@H](Cc2ccc(O)cc2)NC(=O)C1=O
HCT-116 [6]
  Activity: inactive
[1]
  IC50: 17.6 nM
OVCAR [7]
  Activity: inactive
MDA-MB-231 [8]
  Activity: inactive
Chymotrypsinogen A
  IC50: 1900 nM

## CCC[C@@H]1NC(=O)[C@@H](N2C(=O)N[C@@H](C)C2=O)CNC(=O)[C@H](CS(=O)(=O)O)NC(=O)/C=C/c2csc(n2)[C@H](Cc2ccc(O)cc2)NC(=O)C(=O)[C@H]([C@@H](C)CC)NC1=O
HCT-116 [6]
  Activity: inactive
[1]
  IC50: 34.8 nM
OVCAR [7]
  Activity: inactive
MDA-MB-231 [8]
  Activity: inactive
Chymotrypsinogen A
  IC50: 2500 nM

## CC[C@@H]1NC(=O)[C@@H](N2C(=O)N[C@@H](C)C2=O)CNC(=O)[C@H](CS(=O)(=O)O)NC(=O)/C=C/c2csc(n2)[C@H](Cc2ccc(O)cc2)NC(=O)C(=O)[C@H]([C@@H](C)CC)NC1=O
HCT-116 [6]
  Activity: inactive
[1]
  IC50: 61.8 nM
OVCAR [7]
  Activity: inactive
MDA-MB-231 [8]
  Activity: inactive
Chymotrypsinogen A
  IC50: 2700 nM

## O=S(=O)(F)Cc1ccccc1 [PHENYLMETHYLSULFONYLFLUORIDE]
[1]
  IC50: 138 nM
Chymotrypsinogen A
  IC50: 420 nM

## CC(C)C[C@@H]1NC(=O)[C@H](NC(=O)N[C@@H](Cc2ccccc2)C(=O)O)CCCCNC(=O)[C@H](Cc2ccccc2)NC(=O)[C@H](Cc2c[nH]c3cc(Cl)c(O)cc23)N(C)C(=O)[C@H](CC(C)C)NC1=O
[1]
  IC50: 51.3 nM
Chymotrypsinogen A
  IC50: 730 nM
[2]
  IC50: 1100 nM
